# Assays:
# [1] = target: T1, Raw264.7 p110 γ (Mus musculus, UniProt Q9JHG7); test: Raw264.7 p110 γ cellular assay (phospho-AKT); format: cell-based; conditions: serum-starved RAW264.7 cells stimulated with C5a
# T1 construct: reduction of phospho-AKT in stimulated RAW 264.7 cells; endogenous in cells; host or cells: RAW264.7 macrophages
# Source text: (b) PI3K-γ Selective Assay
# Briefly, serum-starved PAW264.7 cells are stimulated with a known GPCR agonist C5a. […] Cells can be treated with test compounds prior to, simultaneously with, or subsequent to the stimulation by C5a. RAW 264.7 cells respond to the complement component fragment C5a through activation of the C5a receptor, and the C5a receptor activates macrophages and induces cell migration.
# [2] = target: T2, PI3K γ (Homo sapiens, UniProt P48736); test: PI3-Kinase Promega ADP-Glo Max assay; format: biochemical; conditions: 40 nM kinase, 3 mM ATP, 500 uM diC8-PtdInsP
# T2 construct: purchased Millipore
# Method in brief: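 Human class I PI3K reactions ran 2 hours at room temperature, followed by stop solution (40 min) and detection mix (1 hour) before luminescence reading.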
# [3] = target: T3, PI3K δ (Homo sapiens, UniProt O00329); test: PI3-Kinase Promega ADP-Glo Max assay; format: biochemical; conditions: 20 nM kinase, 3 mM ATP, 500 uM diC8-PtdInsP
# T3 construct: purchased Millipore
# Method in brief: (§1)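 Human class I PI3K (20 nM α or δ, 40 nM β) pre-incubated 15 min with compound in HEPES pH 7.4 buffer with MgCl2, then reacted 2 h at room temperature with 3 mM ATP and 500 uM diC8-PtdInsP. ADP measured by ADP-Glo Max luminescence; % inhibition fitted to 4-parameter logistic for IC50.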
# [4] = target: T4, PI3K β (Homo sapiens, UniProt P42338); test: PI3-Kinase Promega ADP-Glo Max assay; format: biochemical; conditions: 40 nM kinase, 3 mM ATP, 500 uM diC8-PtdInsP
# T4 construct: purchased Millipore
# Method in brief: as §1
# [5] = target: T5, PI3K α (Homo sapiens, UniProt P42336); test: PI3-Kinase Promega ADP-Glo Max assay; format: biochemical; conditions: 20 nM kinase, 3 mM ATP, 500 uM diC8-PtdInsP
# T5 construct: purchased Millipore
# Method in brief: as §1
# [6] = target: RAJI p110 δ (Homo sapiens, UniProt O00329); test: RAJI p110 δ cellular assay (phospho-AKT);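 also: potency based on lowered phosphorylated AKT in RAJI cells, as a readout of PI3K-δ dependent B-cell receptor signaling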
# Chain of RAJI p110 δ (O00329 whole entry): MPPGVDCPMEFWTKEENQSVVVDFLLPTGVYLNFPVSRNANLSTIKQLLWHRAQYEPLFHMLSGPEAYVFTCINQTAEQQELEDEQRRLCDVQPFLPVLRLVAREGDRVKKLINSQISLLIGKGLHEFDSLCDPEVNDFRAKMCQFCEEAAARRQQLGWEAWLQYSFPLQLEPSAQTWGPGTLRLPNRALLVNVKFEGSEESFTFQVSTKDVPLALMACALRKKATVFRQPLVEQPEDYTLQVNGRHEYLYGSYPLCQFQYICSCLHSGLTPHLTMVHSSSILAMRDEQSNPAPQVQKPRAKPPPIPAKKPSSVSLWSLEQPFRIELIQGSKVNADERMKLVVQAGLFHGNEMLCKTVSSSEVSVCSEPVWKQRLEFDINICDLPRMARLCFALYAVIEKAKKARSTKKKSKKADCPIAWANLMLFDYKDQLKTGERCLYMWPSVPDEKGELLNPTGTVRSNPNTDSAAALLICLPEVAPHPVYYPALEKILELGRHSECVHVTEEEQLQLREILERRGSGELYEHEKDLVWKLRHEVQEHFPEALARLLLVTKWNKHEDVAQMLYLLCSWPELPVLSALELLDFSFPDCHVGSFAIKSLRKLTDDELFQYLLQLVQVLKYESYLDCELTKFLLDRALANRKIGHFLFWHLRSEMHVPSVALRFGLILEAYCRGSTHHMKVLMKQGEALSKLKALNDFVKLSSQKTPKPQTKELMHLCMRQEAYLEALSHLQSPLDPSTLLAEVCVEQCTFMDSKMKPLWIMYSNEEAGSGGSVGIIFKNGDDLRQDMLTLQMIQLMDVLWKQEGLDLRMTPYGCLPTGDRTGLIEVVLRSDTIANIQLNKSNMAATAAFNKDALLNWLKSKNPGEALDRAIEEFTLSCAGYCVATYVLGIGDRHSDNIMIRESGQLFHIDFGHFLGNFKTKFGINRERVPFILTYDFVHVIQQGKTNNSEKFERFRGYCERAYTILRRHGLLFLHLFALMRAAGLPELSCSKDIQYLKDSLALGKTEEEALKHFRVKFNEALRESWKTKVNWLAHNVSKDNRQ
# Chain of RAJI p110 δ (P27986 whole entry partner): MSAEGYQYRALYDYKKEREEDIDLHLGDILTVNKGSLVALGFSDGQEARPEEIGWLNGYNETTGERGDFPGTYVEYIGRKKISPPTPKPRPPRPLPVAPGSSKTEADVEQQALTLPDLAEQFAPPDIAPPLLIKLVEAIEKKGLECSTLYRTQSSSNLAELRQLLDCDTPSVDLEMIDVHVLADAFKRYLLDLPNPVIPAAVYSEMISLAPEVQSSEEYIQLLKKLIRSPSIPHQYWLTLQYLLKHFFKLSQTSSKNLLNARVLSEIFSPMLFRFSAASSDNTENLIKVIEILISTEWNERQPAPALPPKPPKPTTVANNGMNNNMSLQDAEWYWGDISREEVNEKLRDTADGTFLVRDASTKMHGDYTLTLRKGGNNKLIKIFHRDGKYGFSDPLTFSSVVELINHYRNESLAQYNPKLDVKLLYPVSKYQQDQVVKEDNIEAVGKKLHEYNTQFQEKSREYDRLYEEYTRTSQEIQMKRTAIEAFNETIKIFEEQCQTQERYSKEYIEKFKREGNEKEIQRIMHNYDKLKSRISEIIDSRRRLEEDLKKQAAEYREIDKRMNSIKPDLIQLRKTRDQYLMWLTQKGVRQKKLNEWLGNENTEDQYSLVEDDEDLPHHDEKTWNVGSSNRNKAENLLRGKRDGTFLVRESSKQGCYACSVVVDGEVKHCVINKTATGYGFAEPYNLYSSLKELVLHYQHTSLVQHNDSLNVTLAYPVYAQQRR
# Source text: (a) PI3K-δ Selective Assay
# Reduction of phospho-AKT is indicative of compounds that may inhibit B-cell proliferation and function in certain diseases.
# T5 sequence (P42336 whole entry): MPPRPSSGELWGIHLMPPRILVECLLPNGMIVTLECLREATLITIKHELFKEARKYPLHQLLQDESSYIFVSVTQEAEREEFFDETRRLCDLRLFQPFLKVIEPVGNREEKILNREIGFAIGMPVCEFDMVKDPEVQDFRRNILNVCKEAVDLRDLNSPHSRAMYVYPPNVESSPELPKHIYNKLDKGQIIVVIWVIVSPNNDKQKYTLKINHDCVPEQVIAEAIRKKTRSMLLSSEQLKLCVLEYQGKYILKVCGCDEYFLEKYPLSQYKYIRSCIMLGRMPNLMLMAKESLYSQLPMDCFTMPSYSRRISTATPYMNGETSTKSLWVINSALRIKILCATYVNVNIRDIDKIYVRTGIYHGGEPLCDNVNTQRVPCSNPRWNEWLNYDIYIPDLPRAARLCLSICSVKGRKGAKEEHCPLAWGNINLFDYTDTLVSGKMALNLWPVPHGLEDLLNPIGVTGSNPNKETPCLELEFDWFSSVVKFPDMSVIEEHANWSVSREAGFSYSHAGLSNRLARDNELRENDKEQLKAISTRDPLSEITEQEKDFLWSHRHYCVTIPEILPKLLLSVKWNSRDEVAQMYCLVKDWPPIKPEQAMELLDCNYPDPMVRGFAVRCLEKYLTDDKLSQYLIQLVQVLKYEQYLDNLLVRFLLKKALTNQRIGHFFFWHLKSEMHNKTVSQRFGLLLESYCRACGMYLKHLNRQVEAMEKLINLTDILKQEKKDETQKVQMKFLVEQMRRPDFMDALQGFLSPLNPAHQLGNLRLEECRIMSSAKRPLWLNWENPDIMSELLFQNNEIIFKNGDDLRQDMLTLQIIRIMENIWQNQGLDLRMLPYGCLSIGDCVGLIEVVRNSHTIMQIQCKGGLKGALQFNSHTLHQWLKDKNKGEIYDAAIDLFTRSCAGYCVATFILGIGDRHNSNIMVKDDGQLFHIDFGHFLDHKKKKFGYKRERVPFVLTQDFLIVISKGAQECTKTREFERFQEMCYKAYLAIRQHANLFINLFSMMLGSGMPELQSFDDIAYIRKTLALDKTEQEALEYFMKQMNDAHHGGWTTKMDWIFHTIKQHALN
# T5 sequence (P27986 whole entry partner): as the sequence (P27986 whole entry partner) above
# T1 sequence (Q9JHG7 whole entry): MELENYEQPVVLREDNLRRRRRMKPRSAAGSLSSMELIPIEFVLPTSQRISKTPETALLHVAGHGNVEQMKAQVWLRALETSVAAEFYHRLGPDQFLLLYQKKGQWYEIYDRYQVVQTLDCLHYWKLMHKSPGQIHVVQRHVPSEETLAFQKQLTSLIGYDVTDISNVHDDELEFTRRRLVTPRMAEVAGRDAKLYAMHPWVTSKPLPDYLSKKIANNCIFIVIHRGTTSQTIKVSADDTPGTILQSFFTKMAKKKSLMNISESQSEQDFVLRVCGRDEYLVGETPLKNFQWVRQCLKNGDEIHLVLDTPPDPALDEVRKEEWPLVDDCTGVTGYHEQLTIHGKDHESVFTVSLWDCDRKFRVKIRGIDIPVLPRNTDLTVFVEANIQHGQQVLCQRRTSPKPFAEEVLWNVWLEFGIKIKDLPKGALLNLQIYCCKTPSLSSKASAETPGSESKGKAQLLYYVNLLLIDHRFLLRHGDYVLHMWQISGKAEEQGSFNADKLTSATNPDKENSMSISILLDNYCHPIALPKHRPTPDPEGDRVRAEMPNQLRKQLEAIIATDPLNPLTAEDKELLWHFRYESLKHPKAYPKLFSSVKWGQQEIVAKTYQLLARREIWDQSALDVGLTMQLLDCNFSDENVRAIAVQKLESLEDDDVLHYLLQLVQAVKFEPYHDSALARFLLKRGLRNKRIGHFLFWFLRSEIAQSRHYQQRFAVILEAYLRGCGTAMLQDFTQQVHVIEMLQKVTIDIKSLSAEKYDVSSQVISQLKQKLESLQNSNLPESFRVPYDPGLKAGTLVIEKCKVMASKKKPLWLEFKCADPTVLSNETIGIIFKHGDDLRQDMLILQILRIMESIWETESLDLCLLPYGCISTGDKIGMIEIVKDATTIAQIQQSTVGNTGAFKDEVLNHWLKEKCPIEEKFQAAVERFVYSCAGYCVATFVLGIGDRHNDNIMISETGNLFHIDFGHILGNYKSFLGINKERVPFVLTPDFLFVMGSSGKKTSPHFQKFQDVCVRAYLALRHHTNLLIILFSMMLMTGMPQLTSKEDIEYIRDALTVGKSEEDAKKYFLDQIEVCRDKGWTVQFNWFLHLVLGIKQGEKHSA
# T2 sequence (P48736 whole entry): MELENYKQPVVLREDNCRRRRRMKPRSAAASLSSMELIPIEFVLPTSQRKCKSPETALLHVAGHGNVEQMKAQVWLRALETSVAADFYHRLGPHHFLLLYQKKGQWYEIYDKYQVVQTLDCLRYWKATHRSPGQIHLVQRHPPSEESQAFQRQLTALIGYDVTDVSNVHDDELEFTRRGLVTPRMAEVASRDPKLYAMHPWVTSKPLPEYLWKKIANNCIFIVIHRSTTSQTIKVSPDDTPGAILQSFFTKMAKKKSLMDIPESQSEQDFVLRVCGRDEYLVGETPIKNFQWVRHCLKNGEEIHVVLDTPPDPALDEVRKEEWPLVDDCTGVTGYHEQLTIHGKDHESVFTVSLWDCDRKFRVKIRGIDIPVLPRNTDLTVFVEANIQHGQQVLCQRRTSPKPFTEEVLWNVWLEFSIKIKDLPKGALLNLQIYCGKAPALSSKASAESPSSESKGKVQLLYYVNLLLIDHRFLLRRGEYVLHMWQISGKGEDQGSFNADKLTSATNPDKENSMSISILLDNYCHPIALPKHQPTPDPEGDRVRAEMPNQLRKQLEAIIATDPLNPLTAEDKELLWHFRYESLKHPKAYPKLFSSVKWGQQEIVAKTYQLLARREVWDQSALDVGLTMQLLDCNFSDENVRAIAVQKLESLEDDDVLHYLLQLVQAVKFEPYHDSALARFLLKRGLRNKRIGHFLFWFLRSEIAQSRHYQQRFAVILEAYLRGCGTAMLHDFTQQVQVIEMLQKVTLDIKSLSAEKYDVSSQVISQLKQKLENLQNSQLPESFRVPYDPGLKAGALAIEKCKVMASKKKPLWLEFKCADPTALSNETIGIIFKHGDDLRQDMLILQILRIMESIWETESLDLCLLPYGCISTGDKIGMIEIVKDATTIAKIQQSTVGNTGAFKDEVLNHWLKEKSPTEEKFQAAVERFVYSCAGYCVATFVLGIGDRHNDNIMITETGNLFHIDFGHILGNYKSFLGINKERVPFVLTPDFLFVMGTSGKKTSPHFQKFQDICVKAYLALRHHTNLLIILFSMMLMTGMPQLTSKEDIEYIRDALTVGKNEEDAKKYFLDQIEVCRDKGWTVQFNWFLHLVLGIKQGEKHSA
structure (smiles),measurement,setting,value
CC(=O)NCC#Cc1cccc2cc([C@H](C)NC(=O)c3c(N)nn4cccnc34)n(-c3ccccc3)c(=O)c12 [Compound 165],IC50,[1],< 0.1 µM
same,IC50,[2],< 0.1 µM
same,IC50,[3],1 to 10 µM
same,IC50,[4],1 to 10 µM
same,IC50,[5],1 to 10 µM
same,IC50,[6],< 0.1 µM
CC#Cc1cccc2cc([C@H](C)NC(=O)c3c(N)nn4cccnc34)n(-c3ccccc3)c(=O)c12 [Compound 167],IC50,[1],< 0.1 µM
same,IC50,[2],< 0.1 µM
same,IC50,[3],1 to 10 µM
same,IC50,[4],1 to 10 µM
same,IC50,[5],1 to 10 µM
same,IC50,[6],< 0.1 µM
C[C@H](NC(=O)c1nc(-c2cccc(NS(C)(=O)=O)c2)c(N)nc1N)c1cc2cccc(Cl)c2c(=O)n1-c1ccccc1 [Compound 169],IC50,[1],< 0.1 µM
same,IC50,[2],< 0.1 µM
same,IC50,[3],0.1 to 1 µM
same,IC50,[4],< 0.1 µM
same,IC50,[5],< 0.1 µM
same,IC50,[6],< 0.1 µM
C[C@H](NC(=O)c1nc(-c2cccc(NS(C)(=O)=O)c2)cnc1N)c1cc2cccc(Cl)c2c(=O)n1C1CC1 [Compound 171],IC50,[1],< 0.1 µM
same,IC50,[2],< 0.1 µM
same,IC50,[3],1 to 10 µM
same,IC50,[4],0.1 to 1 µM
same,IC50,[5],1 to 10 µM
same,IC50,[6],< 0.1 µM
CC(C)c1ccn2nc(N)c(C(=O)N[C@@H](C)c3cc4cccc(Cl)c4c(=O)n3-c3ccccc3)c2n1 [Compound 178],IC50,[1],< 0.1 µM
same,IC50,[2],1 to 10 µM
same,IC50,[3],1 to 10 µM
same,IC50,[4],1 to 10 µM
same,IC50,[5],> 10 µM
same,IC50,[6],0.1 to 1 µM
C[C@H](NC(=O)c1c(N)nn2cccnc12)c1cc2cccc(N(C)C)c2c(=O)n1-c1ccccc1 [Compound 180],IC50,[1],0.1 to 1 µM
same,IC50,[2],1 to 10 µM
same,IC50,[3],> 10 µM
same,IC50,[4],> 10 µM
same,IC50,[5],> 10 µM
same,IC50,[6],1 to 10 µM
C[C@H](NC(=O)c1nc(-c2cccc(NS(C)(=O)=O)c2)cnc1N)c1cc2cccc(Cl)c2c(=O)n1C [Compound 183],IC50,[1],< 0.1 µM
same,IC50,[2],< 0.1 µM
same,IC50,[3],0.1 to 1 µM
same,IC50,[4],< 0.1 µM
same,IC50,[5],0.1 to 1 µM
same,IC50,[6],< 0.1 µM
C[C@H](NC(=O)c1c(N)nn2cccnc12)c1cc2cccc(N3CCOCC3)c2c(=O)n1-c1ccccc1 [Compound 184],IC50,[1],0.1 to 1 µM
same,IC50,[2],1 to 10 µM
same,IC50,[3],> 10 µM
same,IC50,[4],> 10 µM
same,IC50,[5],> 10 µM
same,IC50,[6],1 to 10 µM
COc1cc(-c2cccc3cc([C@H](C)NC(=O)c4c(N)nn5ccc(C)nc45)n(-c4ccccc4)c(=O)c23)ccn1 [Compound 186],IC50,[1],< 0.1 µM
same,IC50,[2],0.1 to 1 µM
same,IC50,[3],1 to 10 µM
same,IC50,[4],> 10 µM
same,IC50,[5],1 to 10 µM
same,IC50,[6],< 0.1 µM
C[C@H](NC(=O)c1c(N)nn2cccnc12)c1cc2cccc(C#CCNS(C)(=O)=O)c2c(=O)n1-c1ccccc1 [Compound 187],IC50,[1],< 0.1 µM
same,IC50,[2],0.1 to 1 µM
same,IC50,[3],1 to 10 µM
same,IC50,[4],1 to 10 µM
same,IC50,[5],1 to 10 µM
same,IC50,[6],0.1 to 1 µM
COc1cc(-c2cccc3cc([C@H](C)NC(=O)c4c(N)nn5cccnc45)n(-c4cccc(F)c4)c(=O)c23)ccn1 [Compound 189],IC50,[1],< 0.1 µM
same,IC50,[2],0.1 to 1 µM
same,IC50,[3],1 to 10 µM
same,IC50,[4],> 10 µM
same,IC50,[5],1 to 10 µM
same,IC50,[6],0.1 to 1 µM
C[C@H](NC(=O)c1c(N)nn2cccnc12)c1cc2cccc(F)c2c(=O)n1-c1ccccc1 [Compound 191],IC50,[1],< 0.1 µM
same,IC50,[2],< 0.1 µM
same,IC50,[3],0.1 to 1 µM
same,IC50,[4],0.1 to 1 µM
same,IC50,[5],1 to 10 µM
same,IC50,[6],< 0.1 µM
C[C@H](NC(=O)c1c(N)nn2cccnc12)c1cc2cccc(C3CC3)c2c(=O)n1-c1ccccc1 [Compound 193],IC50,[1],< 0.1 µM
same,IC50,[2],1 to 10 µM
same,IC50,[3],1 to 10 µM
same,IC50,[4],> 10 µM
same,IC50,[5],> 10 µM
same,IC50,[6],0.1 to 1 µM
C[C@H](NC(=O)c1nc(-c2cccc(S(=O)(=O)NC3CC3)c2)cnc1N)c1cc2cccc(Cl)c2c(=O)n1C [Compound 194],IC50,[1],< 0.1 µM
same,IC50,[2],< 0.1 µM
same,IC50,[3],0.1 to 1 µM
same,IC50,[4],< 0.1 µM
same,IC50,[5],0.1 to 1 µM
same,IC50,[6],< 0.1 µM
C[C@H](NC(=O)c1c(N)nn2cccnc12)c1cc2cccc(Cl)c2c(=O)n1C1CCCCC1 [Compound 196],IC50,[1],< 0.1 µM
same,IC50,[2],1 to 10 µM
same,IC50,[3],1 to 10 µM
same,IC50,[4],1 to 10 µM
same,IC50,[5],1 to 10 µM
same,IC50,[6],< 0.1 µM
C[C@H](NC(=O)c1c(N)nn2cccnc12)c1cc2ccsc2c(=O)n1-c1ccccc1 [Compound 198],IC50,[1],0.1 to 1 µM
same,IC50,[2],1 to 10 µM
same,IC50,[3],1 to 10 µM
same,IC50,[4],1 to 10 µM
same,IC50,[5],> 10 µM
same,IC50,[6],0.1 to 1 µM
C[C@H](NC(=O)c1c(N)nn2cccnc12)c1cc2cccc(C=O)c2c(=O)n1-c1ccccc1 [Compound 201],IC50,[1],< 0.1 µM
same,IC50,[2],1 to 10 µM
same,IC50,[3],1 to 10 µM
same,IC50,[4],1 to 10 µM
same,IC50,[5],> 10 µM
same,IC50,[6],0.1 to 1 µM
CC(=O)Nc1cccc(-c2cccc3cc([C@H](C)NC(=O)c4c(N)nn5cccnc45)n(-c4ccccc4)c(=O)c23)c1 [Compound 202],IC50,[1],0.1 to 1 µM
same,IC50,[2],0.1 to 1 µM
same,IC50,[3],1 to 10 µM
same,IC50,[4],> 10 µM
same,IC50,[5],1 to 10 µM
same,IC50,[6],< 0.1 µM
CC(=O)Nc1ccc(-c2cccc3cc([C@H](C)NC(=O)c4c(N)nn5cccnc45)n(-c4ccccc4)c(=O)c23)cc1 [Compound 203],IC50,[1],< 0.1 µM
same,IC50,[2],0.1 to 1 µM
same,IC50,[3],1 to 10 µM
same,IC50,[4],> 10 µM
same,IC50,[5],1 to 10 µM
same,IC50,[6],< 0.1 µM
C[C@H](NC(=O)c1c(N)nn2cccnc12)c1cc2scc(-c3cnn(C)c3)c2c(=O)n1-c1ccccc1 [Compound 209],IC50,[1],0.1 to 1 µM
same,IC50,[2],1 to 10 µM
same,IC50,[3],> 10 µM
same,IC50,[4],> 10 µM
same,IC50,[5],> 10 µM
same,IC50,[6],1 to 10 µM
C[C@H](NC(=O)c1c(N)nn2cccnc12)c1cc2scc(Cl)c2c(=O)n1-c1ccccc1 [Compound 212],IC50,[1],< 0.1 µM
same,IC50,[2],< 0.1 µM
same,IC50,[3],0.1 to 1 µM
same,IC50,[4],0.1 to 1 µM
same,IC50,[5],1 to 10 µM
same,IC50,[6],< 0.1 µM
C[C@H](NC(=O)c1c(N)ncc2cccnc12)c1cc2cccc(N3CCOCC3)c2c(=O)n1-c1ccccc1 [Compound 214],IC50,[1],< 0.1 µM
same,IC50,[2],0.1 to 1 µM
same,IC50,[3],1 to 10 µM
same,IC50,[4],> 10 µM
same,IC50,[5],> 10 µM
same,IC50,[6],< 0.1 µM
CC(NC(=O)c1c(N)nn2cccnc12)c1cc2cccc(Cl)c2nc1-c1ccccc1 (stereo not drawn) [Compound 218],IC50,[1],< 0.1 µM
same,IC50,[2],1 to 10 µM
same,IC50,[3],1 to 10 µM
same,IC50,[4],1 to 10 µM
same,IC50,[5],> 10 µM
same,IC50,[6],< 0.1 µM
COc1cc(-c2cccc3cc(C(C)NC(=O)c4c(N)nn5cccnc45)c(-c4ccccc4)nc23)ccn1 (stereo not drawn) [Compound 219],IC50,[1],< 0.1 µM
same,IC50,[2],1 to 10 µM
same,IC50,[3],> 10 µM
same,IC50,[4],> 10 µM
same,IC50,[5],> 10 µM
same,IC50,[6],0.1 to 1 µM
COc1cc(-c2cccc3cc([C@H](C)NC(=O)c4c(N)nn5cccnc45)n(C)c(=O)c23)ccn1 [Compound 220],IC50,[1],< 0.1 µM
same,IC50,[2],1 to 10 µM
same,IC50,[3],1 to 10 µM
same,IC50,[4],> 10 µM
same,IC50,[5],1 to 10 µM
same,IC50,[6],< 0.1 µM
